Laboratory results taken from US8841348B2, “Anti-inflammatory formulation” (AKL Inflammatory Limited, priority 2005, dated 2014).

Experiment: Applicant's clinical observation of paeonol and apocynin alone versus together
Assay type: in vivo
Details: used on their own
Source text: The applicant has noted that the effect of the combination of paeonol and apocynin together is rather better than would have been expected from studies using either of these alone.

Row | Structure (SMILES) | anti-inflammatory and/or analgesic activity
1 | COc1cc(C(C)=O)ccc1O [apocynin, 4-hydroxy-3-methoxyacetophenone] | did not show anti-inflammatory and/or analgesic activity that could be clinically observed
2 | COc1ccc(C(C)=O)c(O)c1 [paeonol, 2-hydroxy-4-methoxy-acetophenone] | did not show anti-inflammatory and/or analgesic activity that could be clinically observed
